# According to patent US20250214977A1, “STAT6 INHIBITORS AND USES THEREOF” (Kymera Therapeutics, Inc., priority 2024, published 2025):
# Test system: Phosphorylation of STAT6 in human A549 cells
# Test: Phosphorylated STAT6 (pSTAT6) flow cytometry assay in human A549 cells
# Format: cell-based
# Settings: read-out: STAT6 IL4 pSTAT6 assay in A549 cells: Average IC50
# Source text: Example 3. Phosphorylated STAT6 (pSTAT6) Flow Cytometry Assay in Human A549 Cells
# Phosphorylation of STAT6 in human A549 cells was quantitatively measured using flow cytometry technology.
row,SMILES,IC50
1,COc1cc(F)cnc1N1CCN(C(=O)c2cc3c(-c4cnccc4C(C)C)cc(C4=CCCN(C(=O)CCn5ccnn5)C4)c(F)c3[nH]2)CC1 [Example I-668],> 100000 nM
2,COc1ccccc1-c1cc(C2CN(C(=O)CCn3ccnn3)CC(F)(F)C2)c(F)c2[nH]c(C(=O)N3Cc4cnn(C)c4C3)cc12 (centres unmarked) [Example I-512],< 100 nM
3,COc1cc(F)cnc1N1CCN(C(=O)c2cc3c(C4=CCN(c5ccccn5)CC4)cc(C4=CCCN(C(=O)CCn5ccnn5)C4)c(F)c3[nH]2)CC1 [Example I-1117],< 100 nM
4,COc1cc(F)cnc1N1CCN(C(=O)c2cc3c(-c4cc(C5(C#N)CC5)ccc4F)cc(C4=CCCN(C(=O)CCn5ccnn5)C4)c(F)c3[nH]2)CC1 [Example I-650],< 100 nM
5,COc1ccccc1-c1cc(C2=CCCN(C(=O)CCn3ccnn3)C2)c(F)c2[nH]c(C(=O)N(C)CCc3ccccn3)cc12 [Example I-986],< 100 nM
6,CCc1cnccc1-c1cc(C(=O)N2CCN(c3ncc(F)cc3OC)CC2)cc2cc(C3=CCCN(C(=O)C(=O)O)C3)n(CC3CC3)c12 [Example I-796],> 100000 nM
7,CCc1cc(C(F)F)ncc1-c1cc(C2=CCCN(C(=O)CCn3ccnn3)C2)c(F)c2[nH]c(C(=O)N3CCN(c4nc(C)c(F)cc4OC)CC3)cc12 [Example I-763],< 100 nM
8,CCc1ccncc1-c1cc(C2=CCCN(C(=O)OC)C2)c(F)c2[nH]c(C(=O)N3CCN(c4ncc(F)cc4OC)CC3)cc12 [Example I-708],10000 to 100000 nM
9,CCC1CCCC=C1c1cc(C2=CCCN(C(=O)CCn3ccnn3)C2)c(F)c2[nH]c(C(=O)N3CCN(c4ncccc4OC)CC3)cc12 (centres unmarked) [Example I-1168],100 to 1000 nM
10,COc1cc(F)cnc1N1CCN(C(=O)c2cc(-c3cccnc3C3CC3)c3c(c2)cc(C2=CCCN(C(=O)CCn4ccnn4)C2)n3CC2CC2)CC1 [Example I-728],> 100000 nM
11,CCCOc1ncccc1-c1cc(C2=CCCN(C(=O)CCn3ccnn3)C2)c(F)c2[nH]c(C(=O)N3CCN(c4ncc(F)cc4OC)CC3)cc12 [Example I-652],< 100 nM
12,COc1cc(F)cnc1N1CCN(C(=O)c2cc3c(-c4cncc(OC(F)F)c4)cc(C4=CCCN(C(=O)CCn5ccnn5)C4)c(F)c3[nH]2)CC1 [Example I-651],< 100 nM
13,CN(C)C(=O)c1cc2cc(C3=CCCN(C(=O)CCn4ccnn4)C3)cc(-c3ccc4[nH]ncc4c3)c2o1 [Example I-1080],< 100 nM

# Next, values leading:
row,IC50,SMILES
1,< 100 nM,CCOc1cccnc1N1CCN(C(=O)c2cc3c(-c4ccccc4OC)cc(C4=CCCN(C(=O)CCn5ccnn5)C4)c(F)c3[nH]2)CC1 [Example I-335]
2,< 100 nM,CCc1cnccc1-c1cc(C2=CCCN(C(=O)CCn3ccnn3)C2)c(F)c2[nH]c(C(=O)N3CCN(c4ncc(F)cc4OC)CC3)cc12 [Example I-689]
3,< 100 nM,COc1ccncc1-c1cc(C2=CCCN(C(=O)CCn3ccnn3)C2)c(F)c2[nH]c(C(=O)N3CCN(c4ccc(F)cc4OC)CC3)cc12 [Example I-482]
4,100 to 1000 nM,COc1ccccc1-c1cc(C2=CCCN(C(=O)CCn3ccnn3)C2)c(F)c2[nH]c(C(=O)N3CCN(c4ccc(C)cc4)CC3)cc12 [Example I-860]
5,< 100 nM,COc1ccccc1-c1cc(C2=CCCN(C(=O)CCn3ccnn3)C2)c(F)c2[nH]c(C(=O)N3CCNC(=O)[C@@H]3C)cc12 [Example I-996]
6,< 100 nM,COc1ccccc1-c1cc(C2=CCCN(C(=O)CCn3ccnn3)C2)c(F)c2[nH]c(C(=O)N3CCN(c4ncccc4F)CC3)cc12 [Example I-361]
7,< 100 nM,COc1cc(F)ccc1-c1cc(C2=CCCN(C(=O)CCn3ccnn3)C2)c(F)c2[nH]c(C(=O)N3CCN(c4ncc(Cl)cc4OC)CC3)cc12 [Example I-459]
8,> 100000 nM,COc1ccc(F)cc1-c1cc(C2=CCCN(C(=O)CCn3ccnn3)C2)c(F)c2[nH]c(C(=O)N3CCN(c4ncccc4OC)CC3)cc12 [Example I-395]
9,< 100 nM,CNc1cccnc1N1CCN(C(=O)c2cc3c(-c4ccccc4OC)cc(C4=CCCN(C(=O)CCn5ccnn5)C4)c(F)c3[nH]2)CC1 [Example I-439]
10,< 100 nM,CCS(=O)(=O)N1CCN(C(=O)c2cc3c(-c4ccccc4OC)cc(C4=CCCN(C(=O)CCn5ccnn5)C4)c(F)c3[nH]2)CC1 [Example I-980]
